These results are taken from patent US20090137572A1, “2-substituted-4-heteroaryl-pyrimidines useful for the treatment of proliferative disorders” (priority 2004, published 2009).

Common to all, as to test: Kinase selectivity profile, kinase inhibition IC50 (Table 4), ATP 100 μM
Holding throughout (type): biochemical

In assay [1] the target is T1, protein kinases (panel of Table 4) (Homo sapiens, UniProt O14965).
T1 construct: other: kinase Aurora A; ATP 100 μM
T1 sequence (O14965 1-403): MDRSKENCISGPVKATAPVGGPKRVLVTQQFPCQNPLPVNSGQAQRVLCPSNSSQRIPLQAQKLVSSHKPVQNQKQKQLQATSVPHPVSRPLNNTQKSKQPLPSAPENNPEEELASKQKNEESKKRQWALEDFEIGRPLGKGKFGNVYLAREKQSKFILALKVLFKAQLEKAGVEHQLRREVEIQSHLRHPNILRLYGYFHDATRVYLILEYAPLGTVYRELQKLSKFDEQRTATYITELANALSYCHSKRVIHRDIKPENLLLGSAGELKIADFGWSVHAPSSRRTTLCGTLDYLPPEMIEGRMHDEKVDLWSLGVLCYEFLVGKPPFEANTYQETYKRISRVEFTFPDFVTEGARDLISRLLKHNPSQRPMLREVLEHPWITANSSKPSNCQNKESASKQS
To be noted: kinase Aurora A. How it is done:
(§1) For the assays shown in Table 3, the kinases were assayed at the following ATP concentrations: SAPK4, PKBΔph, GSK3b, SAPK3, CK2, MKK1, PIM2, IKKB, ERK8, and PRK2 at 5 μM; JNK, PRAK, ROCK-II, SAPK2b, CDK2, CHK1, MSK1, CSK, P70S6K, PKA, CK1, MAPKAP-K2, SGK, PKCa, PDK1, NEK 7, and MAPKAP-K3 at 20 μM; SAPK2a, LCK, AMPK, MAPK2, DYRK1a, MAPKAP-K1a, NEK-6, NEK2a, PBK, CAMK-1, SRPK-1, JNK3, MNK2, RSK2, MNK1, PKBB, and SmMLCK at 50 μM. For the assays in Table 4 the ATP concentration was 100 μM throughout.

Assay [2] deals with T2, protein kinases (panel of Table 4) (Homo sapiens, UniProt P00519).
T2 construct: other: kinase Ab1; ATP 100 μM
Particulars: kinase Ab1. The procedure:
as §1

The target in assay [3] is T3, protein kinases (panel of Table 4) (Homo sapiens, UniProt P06239).
T3 construct: other: kinase Lck; ATP 100 μM
To be noted: kinase Lck. How it is done: as §1

Assay [4] has as its target T4, protein kinases (panel of Table 4) (Homo sapiens, UniProt P06493).
T4 construct: other: kinase CDK1B; ATP 100 μM
To be noted: kinase CDK1B. How it is done: as §1

Assay [5] has as its target T5, protein kinases (panel of Table 4) (Homo sapiens, UniProt P09619).
T5 construct: other: kinase PDGFb; ATP 100 μM
To be noted: kinase PDGFb. The procedure:
as §1

Assay [6] concerns the target T6, protein kinases (panel of Table 4) (Homo sapiens, UniProt P11802).
T6 construct: other: kinase CDK4D1; ATP 100 μM
Particulars: kinase CDK4D1. How it is done: as §1

Assay [7] addresses T7, protein kinases (panel of Table 4) (Homo sapiens, UniProt P28482).
T7 construct: other: kinase ERK2; ATP 100 μM
To be noted: kinase ERK2. How it is done:
as §1

For assay [8], the target named is T8, protein kinases (panel of Table 4) (Homo sapiens, UniProt P36888).
T8 construct: other: kinase Flt3; ATP 100 μM
T8 sequence (P36888 1-993): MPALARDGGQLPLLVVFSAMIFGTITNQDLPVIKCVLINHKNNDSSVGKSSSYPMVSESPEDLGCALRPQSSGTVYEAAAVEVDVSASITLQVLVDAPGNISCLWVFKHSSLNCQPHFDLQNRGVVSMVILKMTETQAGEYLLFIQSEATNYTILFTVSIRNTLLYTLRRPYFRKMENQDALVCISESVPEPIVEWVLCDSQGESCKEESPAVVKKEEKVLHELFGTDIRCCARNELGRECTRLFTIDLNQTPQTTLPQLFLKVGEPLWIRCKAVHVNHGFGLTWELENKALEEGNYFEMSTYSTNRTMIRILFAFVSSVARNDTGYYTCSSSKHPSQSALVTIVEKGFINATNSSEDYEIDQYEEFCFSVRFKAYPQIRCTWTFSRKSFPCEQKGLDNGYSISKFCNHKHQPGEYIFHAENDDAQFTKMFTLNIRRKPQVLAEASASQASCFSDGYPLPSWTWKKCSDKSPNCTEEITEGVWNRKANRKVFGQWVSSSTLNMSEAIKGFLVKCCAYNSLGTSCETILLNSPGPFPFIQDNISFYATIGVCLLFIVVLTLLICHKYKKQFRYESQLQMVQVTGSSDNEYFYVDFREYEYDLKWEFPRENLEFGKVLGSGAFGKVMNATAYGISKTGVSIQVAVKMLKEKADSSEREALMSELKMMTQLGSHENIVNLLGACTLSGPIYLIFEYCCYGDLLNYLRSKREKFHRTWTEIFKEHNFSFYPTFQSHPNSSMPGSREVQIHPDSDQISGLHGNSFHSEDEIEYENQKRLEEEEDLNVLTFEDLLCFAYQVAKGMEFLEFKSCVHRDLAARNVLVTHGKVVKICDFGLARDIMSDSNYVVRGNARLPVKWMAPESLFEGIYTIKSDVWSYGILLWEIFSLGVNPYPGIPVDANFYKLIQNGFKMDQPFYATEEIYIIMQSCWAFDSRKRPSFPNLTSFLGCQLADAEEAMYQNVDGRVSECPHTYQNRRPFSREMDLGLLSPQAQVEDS
To be noted: kinase Flt3. The procedure:
as §1

For assay [9], the target named is T9, protein kinases (panel of Table 4) (Homo sapiens, UniProt P49840).
T9 construct: other: kinase GSK3a; ATP 100 μM
To be noted: kinase GSK3a. The procedure:
as §1

Assay [10] deals with T10, protein kinases (panel of Table 4) (Homo sapiens, UniProt P49841).
T10 construct: other: kinase GSK3b; ATP 100 μM
To be noted: kinase GSK3b. The procedure: as §1

Assay [11] has as its target T11, protein kinases (panel of Table 4) (Homo sapiens, UniProt P50750).
T11 construct: other: kinase CDK9T1; ATP 100 μM
Particulars: kinase CDK9T1. The procedure:
as §1

In assay [12] the target is T12, protein kinases (panel of Table 4) (Homo sapiens, UniProt P53350).
T12 construct: other: kinase Plk1; ATP 100 μM
To be noted: kinase Plk1. The procedure: as §1

Assay [13] deals with T13, protein kinases (panel of Table 4).
T13 construct: other: kinase CaMKII; ATP 100 μM
To be noted: kinase CaMKII. The procedure: as §1

The target in assay [14] is T14, protein kinases (panel of Table 4).
T14 construct: other: kinase PKC; ATP 100 μM
Particulars: kinase PKC. How it is done: as §1

A value given as a limit tells only on which side of the number the result lay.

T9 sequence (P49840 whole entry): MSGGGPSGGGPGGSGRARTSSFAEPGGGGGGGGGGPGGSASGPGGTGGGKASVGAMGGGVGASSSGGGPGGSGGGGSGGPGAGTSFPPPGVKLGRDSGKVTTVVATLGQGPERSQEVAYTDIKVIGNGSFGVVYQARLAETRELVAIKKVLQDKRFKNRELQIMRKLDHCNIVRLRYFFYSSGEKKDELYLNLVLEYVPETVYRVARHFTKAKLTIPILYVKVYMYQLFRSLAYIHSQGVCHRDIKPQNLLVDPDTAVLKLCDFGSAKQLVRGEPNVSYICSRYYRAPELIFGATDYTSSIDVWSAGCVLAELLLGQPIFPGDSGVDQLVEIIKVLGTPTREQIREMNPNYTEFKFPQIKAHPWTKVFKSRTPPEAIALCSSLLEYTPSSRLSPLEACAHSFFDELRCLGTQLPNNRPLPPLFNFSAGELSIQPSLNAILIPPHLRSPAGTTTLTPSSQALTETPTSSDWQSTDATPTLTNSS
T11 sequence (P50750 whole entry): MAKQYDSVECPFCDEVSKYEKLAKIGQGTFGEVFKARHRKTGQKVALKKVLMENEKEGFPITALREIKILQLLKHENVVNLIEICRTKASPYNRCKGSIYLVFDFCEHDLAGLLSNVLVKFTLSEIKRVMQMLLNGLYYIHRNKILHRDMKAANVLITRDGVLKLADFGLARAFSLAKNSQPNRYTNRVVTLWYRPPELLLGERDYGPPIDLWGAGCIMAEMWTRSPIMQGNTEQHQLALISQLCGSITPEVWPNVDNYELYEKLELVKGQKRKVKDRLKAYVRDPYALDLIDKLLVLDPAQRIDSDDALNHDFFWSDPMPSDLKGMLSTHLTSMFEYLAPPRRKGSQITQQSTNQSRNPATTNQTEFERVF
T4 sequence (P06493 whole entry): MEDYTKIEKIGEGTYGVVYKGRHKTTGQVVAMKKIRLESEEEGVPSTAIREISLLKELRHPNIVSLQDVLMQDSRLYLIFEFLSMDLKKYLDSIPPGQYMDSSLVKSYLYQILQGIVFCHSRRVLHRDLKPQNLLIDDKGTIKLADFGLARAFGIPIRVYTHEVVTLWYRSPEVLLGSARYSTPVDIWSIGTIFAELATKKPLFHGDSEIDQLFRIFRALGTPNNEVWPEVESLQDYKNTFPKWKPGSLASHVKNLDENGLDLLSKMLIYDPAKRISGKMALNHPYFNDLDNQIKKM
T5 sequence (P09619 whole entry): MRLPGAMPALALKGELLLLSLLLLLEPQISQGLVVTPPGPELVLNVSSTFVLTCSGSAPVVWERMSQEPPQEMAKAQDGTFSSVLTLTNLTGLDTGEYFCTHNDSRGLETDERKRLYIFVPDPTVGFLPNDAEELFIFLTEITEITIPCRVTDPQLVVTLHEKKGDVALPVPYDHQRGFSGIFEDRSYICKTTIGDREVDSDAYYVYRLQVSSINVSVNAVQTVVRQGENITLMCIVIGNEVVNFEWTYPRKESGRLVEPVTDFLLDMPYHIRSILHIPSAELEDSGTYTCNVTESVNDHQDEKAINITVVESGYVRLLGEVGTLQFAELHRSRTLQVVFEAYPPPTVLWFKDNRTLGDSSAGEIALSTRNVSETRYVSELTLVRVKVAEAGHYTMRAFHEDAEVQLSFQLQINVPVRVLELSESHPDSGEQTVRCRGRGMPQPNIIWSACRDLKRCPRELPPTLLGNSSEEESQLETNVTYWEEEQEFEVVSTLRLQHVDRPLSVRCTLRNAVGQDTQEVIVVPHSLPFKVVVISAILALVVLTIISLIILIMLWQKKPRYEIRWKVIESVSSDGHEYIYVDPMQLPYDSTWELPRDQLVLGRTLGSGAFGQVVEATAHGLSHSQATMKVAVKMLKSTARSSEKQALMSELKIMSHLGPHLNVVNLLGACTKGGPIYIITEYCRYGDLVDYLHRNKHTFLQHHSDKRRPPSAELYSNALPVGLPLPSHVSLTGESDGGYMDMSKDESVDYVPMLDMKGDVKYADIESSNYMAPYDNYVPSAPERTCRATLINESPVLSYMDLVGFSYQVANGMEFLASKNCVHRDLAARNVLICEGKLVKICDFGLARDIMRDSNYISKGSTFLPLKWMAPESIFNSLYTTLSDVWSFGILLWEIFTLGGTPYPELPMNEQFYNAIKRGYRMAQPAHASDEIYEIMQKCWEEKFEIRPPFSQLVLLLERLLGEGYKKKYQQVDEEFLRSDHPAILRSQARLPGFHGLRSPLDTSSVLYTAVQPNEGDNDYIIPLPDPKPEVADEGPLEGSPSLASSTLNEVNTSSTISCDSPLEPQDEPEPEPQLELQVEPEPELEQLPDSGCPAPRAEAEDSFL
T2 sequence (P00519 whole entry): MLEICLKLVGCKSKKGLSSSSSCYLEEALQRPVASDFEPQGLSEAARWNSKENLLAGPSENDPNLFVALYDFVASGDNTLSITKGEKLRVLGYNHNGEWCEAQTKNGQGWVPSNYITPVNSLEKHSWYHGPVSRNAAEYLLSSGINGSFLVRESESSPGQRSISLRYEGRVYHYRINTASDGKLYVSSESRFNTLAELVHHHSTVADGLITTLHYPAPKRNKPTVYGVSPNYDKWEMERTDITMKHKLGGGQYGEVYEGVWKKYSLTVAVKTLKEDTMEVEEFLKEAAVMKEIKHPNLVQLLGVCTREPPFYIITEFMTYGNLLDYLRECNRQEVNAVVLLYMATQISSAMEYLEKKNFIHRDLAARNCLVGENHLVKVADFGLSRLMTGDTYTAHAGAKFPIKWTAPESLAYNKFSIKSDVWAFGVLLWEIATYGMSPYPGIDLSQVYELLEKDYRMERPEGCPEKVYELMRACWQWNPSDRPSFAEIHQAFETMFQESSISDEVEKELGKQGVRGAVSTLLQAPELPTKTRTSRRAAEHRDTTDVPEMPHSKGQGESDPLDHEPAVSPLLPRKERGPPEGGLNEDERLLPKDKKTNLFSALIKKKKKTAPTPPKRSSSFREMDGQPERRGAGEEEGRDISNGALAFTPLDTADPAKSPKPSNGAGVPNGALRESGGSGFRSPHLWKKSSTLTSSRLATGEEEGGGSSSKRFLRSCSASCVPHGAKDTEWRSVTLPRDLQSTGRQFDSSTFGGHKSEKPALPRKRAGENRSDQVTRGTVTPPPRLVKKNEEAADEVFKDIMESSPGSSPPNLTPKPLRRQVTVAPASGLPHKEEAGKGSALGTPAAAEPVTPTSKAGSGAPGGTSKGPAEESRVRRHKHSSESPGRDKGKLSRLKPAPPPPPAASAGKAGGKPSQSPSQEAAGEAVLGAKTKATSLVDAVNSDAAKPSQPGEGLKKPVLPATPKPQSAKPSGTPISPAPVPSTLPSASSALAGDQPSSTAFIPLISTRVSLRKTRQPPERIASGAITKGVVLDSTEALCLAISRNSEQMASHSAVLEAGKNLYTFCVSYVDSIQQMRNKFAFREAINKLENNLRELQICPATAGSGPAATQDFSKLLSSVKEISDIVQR
T12 sequence (P53350 whole entry): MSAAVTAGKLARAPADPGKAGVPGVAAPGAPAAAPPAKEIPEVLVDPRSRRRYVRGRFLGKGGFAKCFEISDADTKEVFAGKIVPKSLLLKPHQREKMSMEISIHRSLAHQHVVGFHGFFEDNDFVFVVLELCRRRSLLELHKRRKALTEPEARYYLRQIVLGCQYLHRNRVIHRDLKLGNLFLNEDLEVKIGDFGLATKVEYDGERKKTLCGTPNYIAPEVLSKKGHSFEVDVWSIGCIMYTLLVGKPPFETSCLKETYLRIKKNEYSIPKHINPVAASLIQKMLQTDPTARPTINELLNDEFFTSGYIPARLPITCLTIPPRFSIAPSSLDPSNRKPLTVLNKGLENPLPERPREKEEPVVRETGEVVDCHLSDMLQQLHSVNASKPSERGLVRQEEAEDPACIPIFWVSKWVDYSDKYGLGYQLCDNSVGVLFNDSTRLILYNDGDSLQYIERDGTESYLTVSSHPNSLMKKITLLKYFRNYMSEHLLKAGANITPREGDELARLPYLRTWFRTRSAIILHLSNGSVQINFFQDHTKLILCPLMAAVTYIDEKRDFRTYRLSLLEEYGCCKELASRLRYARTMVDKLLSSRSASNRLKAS
T7 sequence (P28482 whole entry): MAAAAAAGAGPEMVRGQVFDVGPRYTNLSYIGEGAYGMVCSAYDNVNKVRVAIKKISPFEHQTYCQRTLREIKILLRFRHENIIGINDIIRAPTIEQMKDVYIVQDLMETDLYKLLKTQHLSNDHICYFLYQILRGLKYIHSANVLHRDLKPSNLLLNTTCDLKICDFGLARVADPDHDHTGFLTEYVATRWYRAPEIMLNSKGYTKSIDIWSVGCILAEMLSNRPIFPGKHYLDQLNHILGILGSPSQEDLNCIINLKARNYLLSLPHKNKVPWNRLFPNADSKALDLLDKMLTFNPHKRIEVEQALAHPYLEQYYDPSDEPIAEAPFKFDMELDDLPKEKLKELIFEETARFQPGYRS
T10 sequence (P49841 whole entry): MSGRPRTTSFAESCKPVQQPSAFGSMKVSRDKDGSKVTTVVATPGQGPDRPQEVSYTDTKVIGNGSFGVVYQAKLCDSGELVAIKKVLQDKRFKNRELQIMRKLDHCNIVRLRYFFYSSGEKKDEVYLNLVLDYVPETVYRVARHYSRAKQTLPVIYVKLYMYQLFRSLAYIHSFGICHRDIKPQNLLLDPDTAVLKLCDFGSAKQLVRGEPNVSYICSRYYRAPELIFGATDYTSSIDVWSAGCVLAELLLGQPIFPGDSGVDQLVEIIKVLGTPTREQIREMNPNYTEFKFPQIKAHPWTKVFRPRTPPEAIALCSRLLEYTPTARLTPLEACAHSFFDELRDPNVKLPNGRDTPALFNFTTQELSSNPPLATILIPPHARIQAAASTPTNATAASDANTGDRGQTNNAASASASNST

`CNc1nc(C)c(-c2ccnc(Nc3cccc(S(N)(=O)=O)c3)n2)s1` [Compound 19, 3-[4-(4-Methyl-2-methylamino-thiazol-5-yl)-pyrimidin-2-ylamino]-benzenesulfonamide]: the 50% inhibitory concentration (IC50) (commonly the concentration that inhibits the measured activity by half) in assay [1] stood at 40 nM; in [2], 370 nM; in assay [3], 490 nM; in assay [4] it was 200 nM; in assay [5] it was 490 nM; in assay [6], 17 nM. Besides, the IC50 was over 10 µM in [7]; 30 nM in [8]; 160 nM in assay [9]; 170 nM in [10]; 3 nM in assay [11]; over 10 µM in assay [12]. In addition, the IC50 in assay [13] amounted to 4.3 µM; in assay [14] it was 5.5 µM.
On to `Cc1ccc(Nc2nccc(-c3sc(N)nc3C)n2)cc1S(=O)(=O)N1CCOCC1` [Compound 38, [4-(2-Amino-4-methyl-thiazol-5-yl)-pyrimidin-2-yl]-[4-methyl-3-(morpholine-4-sulfonyl)-phenyl]-amine], for which the IC50 in assay [1] was 450 nM; in assay [2] it was 2300 nM; in [3], 2600 nM; in assay [4], over 10000 nM; in assay [5], 4800 nM; in [6], over 10000 nM. In addition, the IC50 is over 10 µM in [7]; 200 nM in [8]; 960 nM in assay [9]; 2200 nM in assay [10]; 28 nM in [11]; over 10 µM in assay [12]. Besides, the IC50 in [13] was found to be 6.2 µM; in assay [14], 2.5 µM.
Consider `CNc1nc(C)c(-c2ccnc(Nc3ccc(C)c(S(=O)(=O)N4CCOCC4)c3)n2)s1` [Compound 37, [4-(4-Methyl-2-methylamino-thiazol-5-yl)-pyrimidin-2-yl]-[4-methyl-3-(morpholine-4-sulfonyl)-phenyl]-amine], for which the IC50 in assay [1] was 1100 nM; in [2] it was 3800 nM; in assay [3] it was 4900 nM; in assay [4], over 10000 nM; in assay [5] it was 6600 nM; in assay [6] it was over 10000 nM. For the same compound, the IC50 in assay [7] is over 10 µM; in assay [8], 170 nM; in assay [9], 650 nM; in [10], 1800 nM; in [11], 22 nM; in assay [12], over 10 µM. The results for the IC50 in [13] and in assay [14] were over 10 µM and 6.4 µM, respectively.
As for `COCCNS(=O)(=O)c1cccc(Nc2nccc(-c3sc(N)nc3C)n2)c1` [Compound 55, 3-[4-(2-Amino-4-methyl-thiazol-5-yl)-pyrimidin-2-ylamino]-N-(2-methoxy-ethyl)-benzenesulfonamide], the IC50 in assay [1] worked out at 160 nM; in assay [2], 2100 nM; in assay [3] it was 1800 nM; in [4], 2900 nM; in [5] it was 1900 nM; in assay [6], 1600 nM. Also, the IC50 in [7] is over 10 µM; in assay [8] it was 180 nM; in [9], 290 nM; in [10], 450 nM; in assay [11], 30 nM; in [12] it was over 10 µM. Besides, the IC50 was over 10 µM in assay [13] and 5.8 µM in assay [14].
On to `CCNc1nc(C)c(-c2ccnc(Nc3ccc(N4CCNCC4)cc3)n2)s1` [Compound 59, [4-(2-Ethylamino-4-methyl-thiazol-5-yl)-pyrimidin-2-yl]-(4-piperazin-1-yl-phenyl)-amine], for which the 50% inhibitory concentration (IC50) in assay [1] is 90 nM; in assay [2] it was 470 nM; in assay [3], 120 nM; in [4], 1200 nM; in assay [5], 210 nM; in assay [6], 46 nM. Moreover, the IC50 was over 10 µM in assay [7]; 17 nM in assay [8]; over 10000 nM in assay [9]; over 10000 nM in [10]; 110 nM in assay [11]; over 10 µM in assay [12]. The IC50 in assay [13] is 1 µM; in [14], over 10 µM.
In the case of `CNc1nc(C)c(-c2ccnc(Nc3cccc(S(C)(=O)=O)c3)n2)s1` [Compound 27, (3-Methanesulfonyl-phenyl)-[4-(4-methyl-2-methylamino-thiazol-5-yl)-pyrimidin-2-yl]-amine], the IC50 in assay [1] came out at 320 nM; in [2], 2100 nM; in assay [3], 500 nM; in assay [4], 260 nM; in assay [5] it was 520 nM; in [6] it was 180 nM. Also, the IC50 in [7] is over 10 µM; in assay [8], 65 nM; in assay [9] it was 12 nM; in assay [10], 94 nM; in assay [11], 1 nM; in [12], over 10 µM. Moreover, the IC50 in [13] and in [14] was over 10 µM each time.
